Format in all cases: biochemical
For assay [1], the target named is human cathepsin K (CatK) (Homo sapiens (Human), UniProt P43235). The assay is described as follows: CatK functional enzyme assay. As to conditions: recombinant human CatK, substrate Z-FR-AMC 40 μM, pH 5.5; Ki by Cheng Prusoff equation; read-out: hCatK, Ki. As to the method:
(§1) Reference and test compounds were assayed for inhibitory potency (IC50) against human cathepsins using the following assay setups:
(§2) Recombinant human cathepsins (CatS, CatK, CatL) were purchased from a Enzo Life Sciences. All assays were carried out in 96-well format using a buffer of 50 mM KH2PO4, 50 mM NaCl, 2 mM EDTA, 0.5 mM DTT and 1% Triton-X-100, pH 6.5 for Cathepsin S and a buffer of 50 mM NaOAc, 10 mM EDTA, 1 mM DTT and 0.01% Triton-X-100, pH 5.5 for CatK/L/B. For CatS, the enzyme (0.0007 mU/well) was incubated with fluorogeninc substrate (Z-VVR-AMC, 5 μM) at RT for 10 min. For CatK the enzyme (0.00175 mU/well) was incubated with fluorogeninc substrate (Z-FR-AMC, 40 μM) at RT for 10 min. For CatL, the enzyme (0.000874 mU/well) was incubated with fluorogeninc substrate (Z-VVR-AMC, 40 μM) at RT for 10 min. Flourogenic substrate turnover was detected using a microplate reader (Synergy™ H4, BioTek). Ki values were calculated using the Cheng Prusoff equation (Cheng & Prosoff 1973).

The target of assay [2] is human cathepsin S (CatS) (Homo sapiens (Human), UniProt P25774). The assay is described as follows: CatS functional enzyme assay. As to conditions: for Selectivity Ki(hCatS)/Ki(hCatK): ratio Ki(hCatS)/Ki(hCatK); for Ki: read-out: hCatS, Ki. As to the method: as §2, with “Reference and test compounds were assayed for inhibitory potency (IC50) against human cathepsins using the following assay setups: Recombinant” for “Recombinant”, “All assays were carried out in 96-well format using a buffer of 50 mM KH2PO4, 50 mM NaCl, 2 mM EDTA, 0.5 mM DTT and 1% Triton-X-100, pH 6.5 for Cathepsin S and a buffer of 50 mM NaOAc, 10 mM EDTA, 1 mM DTT and 0.01% Triton-X-100, pH 5.5 for CatK/L/B.” left out
Chain of human cathepsin S (CatS) (P25774 115-331): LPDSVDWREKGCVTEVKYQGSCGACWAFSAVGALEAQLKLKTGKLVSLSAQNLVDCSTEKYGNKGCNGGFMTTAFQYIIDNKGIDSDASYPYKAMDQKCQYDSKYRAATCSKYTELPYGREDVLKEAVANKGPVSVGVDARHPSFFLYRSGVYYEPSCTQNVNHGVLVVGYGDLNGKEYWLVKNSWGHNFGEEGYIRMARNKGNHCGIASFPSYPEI

The target of assay [3] is human cathepsin L (CatL) (Homo sapiens (Human), UniProt P07711). The assay is described as follows: CatL functional enzyme assay. The settings on record: read-out: hCatL, inhibition [%] at 31.6 μM. As to the method:
as §1, §2

Setting [4] is: recombinant human CatS, substrate Z-VVR-AMC 5 μM, pH 6.5, Ki by Cheng Prusoff equation.

Read-outs that look alike come from different tables or passages of the source.

Chain of human cathepsin L (CatL) (P07711 114-333): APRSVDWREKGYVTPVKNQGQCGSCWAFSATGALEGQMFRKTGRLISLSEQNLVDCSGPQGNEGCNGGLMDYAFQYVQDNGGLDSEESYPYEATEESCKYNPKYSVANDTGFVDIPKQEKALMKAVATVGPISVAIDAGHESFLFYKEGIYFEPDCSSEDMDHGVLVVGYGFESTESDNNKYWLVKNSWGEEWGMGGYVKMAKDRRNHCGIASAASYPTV
Chain of human cathepsin K (CatK) (P43235 115-329): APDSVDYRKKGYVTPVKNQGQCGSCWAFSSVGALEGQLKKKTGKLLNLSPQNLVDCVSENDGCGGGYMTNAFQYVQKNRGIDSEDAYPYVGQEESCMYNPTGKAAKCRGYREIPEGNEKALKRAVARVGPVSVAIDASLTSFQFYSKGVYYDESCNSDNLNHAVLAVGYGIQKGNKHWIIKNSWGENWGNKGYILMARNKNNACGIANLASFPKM

As usually defined, the Ki is a measure of affinity in units of concentration, obtained from inhibition or displacement. The term inhibition denotes the change of the read-out against control, counted positive when it falls. With `Cc1ccc(-c2ccc(C(=O)N[C@H](C(=O)N3C[C@H](Cl)[C@H]4OCC(=O)[C@H]43)C3CCCCC3)s2)nn1` [Example 35, N-((S)-2-((3aS,6S,6aS)-6-chloro-3-oxotetrahydro-2H-furo[3,2-b]pyrrol-4(5H)-yl)-1-cyclohexyl-2-oxoethyl)-5-(6-methylpyridazin-3-yl)thiophene-2-carboxamide], the Ki was determined as 16 nM in assay [1] and 172 nM in assay [2] (setting [4]). Moreover, in assay [2], the “Selectivity Ki(hCatS)/Ki(hCatK)” value was 10.7. For the same compound, in assay [3], the inhibition at 31.6 µM came to 23%.

With `O=C(N[C@H](C(=O)N1C[C@H](Cl)[C@H]2OCC(=O)[C@H]21)C1CCCCC1)c1ccc(-c2ncncc2F)s1` [Example 36, N-((S)-2-((3aS,6S,6aS)-6-chloro-3-oxotetrahydro-2H-furo[3,2-b]pyrrol-4(5H)-yl)-1-cyclohexyl-2-oxoethyl)-5-(5-fluoropyrimidin-4-yl)thiophene-2-carboxamide], the Ki in assay [1] is 22 nM; in assay [2] (setting [4]), 469 nM. Moreover, the “Selectivity Ki(hCatS)/Ki(hCatK)” value in assay [2] came out at 21.3. In addition, the inhibition at 31.6 µM in assay [3] was 9%.

`O=C(N[C@H](C(=O)N1C[C@H](Cl)[C@H]2OCC(=O)[C@H]21)C1CCCCC1)c1cc(F)c(-c2cncnc2)s1` [Example 37, N-((S)-2-((3aS,6S,6aS)-6-chloro-3-oxotetrahydro-2H-furo[3,2-b]pyrrol-4(5H)-yl)-1-cyclohexyl-2-oxoethyl)-4-fluoro-5-(pyrimidin-5-yl)thiophene-2-carboxamide]: the Ki in assay [1] came out at 15 nM. Moreover, in assay [2], the “Selectivity Ki(hCatS)/Ki(hCatK)” value was found to be 26.7 and the Ki was 401 nM. The inhibition at 31.6 µM in assay [3] was 29%.

Take `O=C(N[C@H](C(=O)N1C[C@H](Cl)[C@H]2OCC(=O)[C@H]21)C1CCCCC1)c1ccc(-c2ccc(F)nn2)s1` [Example 38, N-((S)-2-((3aS,6S,6aS)-6-chloro-3-oxotetrahydro-2H-furo[3,2-b]pyrrol-4(5H)-yl)-1-cyclohexyl-2-oxoethyl)-5-(6-fluoropyridazin-3-yl)thiophene-2-carboxamide]: the Ki in assay [1] came to 20 nM; in assay [2] (setting [4]), 213 nM. The “Selectivity Ki(hCatS)/Ki(hCatK)” value in assay [2] is 10.7. Besides, the inhibition at 31.6 µM in assay [3] was found to be 30%.

With `N#Cc1cncc(-c2ccc(C(=O)N[C@H](C(=O)N3C[C@H](Cl)[C@H]4OCC(=O)[C@H]43)C3CCCCC3)s2)c1` [Example 39, N-((S)-2-((3aS,6S,6aS)-6-chloro-3-oxotetrahydro-2H-furo[3,2-b]pyrrol-4(5H)-yl)-1-cyclohexyl-2-oxoethyl)-5-(5-cyanopyridin-3-yl)thiophene-2-carboxamide], the Ki stood at 19 nM in assay [1] and 225 nM in assay [2] (setting [4]). The “Selectivity Ki(hCatS)/Ki(hCatK)” value in assay [2] was 11.8. For the same compound, in assay [3], the inhibition at 31.6 µM amounted to 19%.

Turning to `O=C(N[C@H](C(=O)N1C[C@H](Cl)[C@H]2OCC(=O)[C@H]21)C1CCCCC1)c1cc(F)c(-c2ccnnc2)s1` [Example 40, N-((S)-2-((3aS,6S,6aS)-6-chloro-3-oxotetrahydro-2H-furo[3,2-b]pyrrol-4(5H)-yl)-1-cyclohexyl-2-oxoethyl)-4-fluoro-5-(pyridazin-4-yl)thiophene-2-carboxamide], the Ki worked out at 12 nM in assay [1] and 453 nM in assay [2] (setting [4]). Moreover, the “Selectivity Ki(hCatS)/Ki(hCatK)” value in assay [2] is 37.8. For the same compound, the inhibition at 31.6 µM in assay [3] was found to be 39%.

Regarding `Cc1ncc(-c2cnc(C(=O)N[C@H](C(=O)N3C[C@H](Cl)[C@H]4OCC(=O)[C@H]43)C3CCCCC3)s2)cn1` [Example 41, N-((S)-2-((3aS,6S,6aS)-6-chloro-3-oxotetrahydro-2H-furo[3,2-b]pyrrol-4(5H)-yl)-1-cyclohexyl-2-oxoethyl)-5-(2-methylpyrimidin-5-yl)thiazole-2-carboxamide], the Ki came out at 26 nM in assay [1] and 144 nM in assay [2] (setting [4]). For the same compound, the inhibition at 31.6 µM in assay [3] worked out at 25%.

For the compound `Cc1ccc(-c2cnc(C(=O)N[C@H](C(=O)N3C[C@H](Cl)[C@H]4OCC(=O)[C@H]43)C3CCCCC3)s2)cn1` [Example 42, N-((S)-2-((3aS,6S,6aS)-6-chloro-3-oxotetrahydro-2H-furo[3,2-b]pyrrol-4(5H)-yl)-1-cyclohexyl-2-oxoethyl)-5-(6-methylpyridin-3-yl)thiazole-2-carboxamide], the Ki in assay [1] is 14 nM; in assay [2] (setting [4]) it was 356 nM. Further, in assay [2], the “Selectivity Ki(hCatS)/Ki(hCatK)” value is on record as 25.4. Also, the inhibition at 31.6 µM in assay [3] stood at 18%.

Turning to `N#Cc1cncc(-c2cnc(C(=O)N[C@H](C(=O)N3C[C@H](Cl)[C@H]4OCC(=O)[C@H]43)C3CCCCC3)s2)c1` [Example 43, N-((S)-2-((3aS,6S,6aS)-6-chloro-3-oxotetrahydro-2H-furo[3,2-b]pyrrol-4(5H)-yl)-1-cyclohexyl-2-oxoethyl)-5-(5-cyanopyridin-3-yl)thiazole-2-carboxamide], the values for the Ki in assay [1] and in assay [2] (setting [4]) were 243 nM and 769 nM, respectively. The “Selectivity Ki(hCatS)/Ki(hCatK)” value in assay [2] was found to be 3.2. In assay [3], the inhibition at 31.6 µM was determined as 16%.

For `Cc1cnnc(-c2ccc(C(=O)N[C@H](C(=O)N3C[C@H](Cl)[C@H]4OCC(=O)[C@H]43)C3CCCCC3)s2)c1` [Example 44, N-((S)-2-((3aS,6S,6aS)-6-chloro-3-oxotetrahydro-2H-furo[3,2-b]pyrrol-4(5H)-yl)-1-cyclohexyl-2-oxoethyl)-5-(5-methylpyridazin-3-yl)thiophene-2-carboxamide], the Ki in assay [1] amounted to 15 nM; in assay [2] (setting [4]) it was 70 nM. In addition, the “Selectivity Ki(hCatS)/Ki(hCatK)” value in assay [2] turned out to be 4.7. Besides, the inhibition at 31.6 µM in assay [3] was found to be 33%.

In the case of `O=C(N[C@H](C(=O)N1C[C@H](Cl)[C@H]2OCC(=O)[C@H]21)C1CCCCC1)c1ncc(-c2cccnc2)s1` [Example 45, N-((S)-2-((3aS,6S,6aS)-6-chloro-3-oxotetrahydro-2H-furo[3,2-b]pyrrol-4(5H)-yl)-1-cyclohexyl-2-oxoethyl)-5-(pyridin-3-yl)thiazole-2-carboxamide], the Ki in assay [1] worked out at 8 nM; in assay [2] (setting [4]), 262 nM. Moreover, in assay [2], the “Selectivity Ki(hCatS)/Ki(hCatK)” value was 32.8. Also, in assay [3], the inhibition at 31.6 µM was found to be 26%.

As for `O=C(N[C@H](C(=O)N1C[C@H](Cl)[C@H]2OCC(=O)[C@H]21)C1CCCCC1)c1ncc(-c2ccccn2)s1` [Example 46, N-((S)-2-((3aS,6S,6aS)-6-chloro-3-oxotetrahydro-2H-furo[3,2-b]pyrrol-4(5H)-yl)-1-cyclohexyl-2-oxoethyl)-5-(pyridin-2-yl)thiazole-2-carboxamide], the Ki in assay [1] was found to be 9 nM; in assay [2] (setting [4]) it was 413 nM. Further, the “Selectivity Ki(hCatS)/Ki(hCatK)” value in assay [2] was 45.9. Moreover, in assay [3], the inhibition at 31.6 µM was determined as 6%.

Turning to `O=C(N[C@H](C(=O)N1C[C@H](Cl)[C@H]2OCC(=O)[C@H]21)C1CCCCC1)c1ncc(-c2cncc(F)c2)s1` [Example 47, N-((S)-2-((3aS,6S,6aS)-6-chloro-3-oxotetrahydro-2H-furo[3,2-b]pyrrol-4(5H)-yl)-1-cyclohexyl-2-oxoethyl)-5-(5-fluoropyridin-3-yl)thiazole-2-carboxamide], the Ki stood at 20 nM in assay [1] and 221 nM in assay [2] (setting [4]). For the same compound, the “Selectivity Ki(hCatS)/Ki(hCatK)” value in assay [2] worked out at 11.1. Further, the inhibition at 31.6 µM in assay [3] came out at 28%.

As for `O=C(N[C@H](C(=O)N1C[C@H](Cl)[C@H]2OCC(=O)[C@H]21)C1CCCCC1)c1ncc(-c2cnccn2)s1` [Example 48, N-((S)-2-((3aS,6S,6aS)-6-chloro-3-oxotetrahydro-2H-furo[3,2-b]pyrrol-4(5H)-yl)-1-cyclohexyl-2-oxoethyl)-5-(pyrazin-2-yl)thiazole-2-carboxamide], the Ki in assay [1] was 14 nM; in assay [2] (setting [4]) it was 242 nM. Besides, the “Selectivity Ki(hCatS)/Ki(hCatK)” value in assay [2] turned out to be 17.3. Also, the inhibition at 31.6 µM in assay [3] turned out to be 7%.

For `O=C(N[C@H](C(=O)N1C[C@H](Cl)[C@H]2OCC(=O)[C@H]21)C1CCCCC1)c1ncc(-c2ccncc2)s1` [Example 49, N-((S)-2-((3aS,6S,6aS)-6-chloro-3-oxotetrahydro-2H-furo[3,2-b]pyrrol-4(5H)-yl)-1-cyclohexyl-2-oxoethyl)-5-(pyridin-4-yl)thiazole-2-carboxamide], the Ki in assay [1] came to 9 nM; in assay [2] (setting [4]), 376 nM. Also, in assay [2], the “Selectivity Ki(hCatS)/Ki(hCatK)” value turned out to be 41.8. Besides, the inhibition at 31.6 µM in assay [3] turned out to be 4%.

For the origin of these results see patent US9725459B2, “3-oxo-tetrahydro-furo[3,2-B]pyrrol-4(5H)-yl) derivatives I” (GRÜNENTHAL GMBH, priority 2014, dated 2017).
